What was measured:
[1] = biological target: human MCH-1 receptor (Homo sapiens (Human), UniProt Q99705); test: Binding assay for human melanin-concentrating hormone (MCH1) receptor; details: membranes from CHO-K1 cells expressing human MCH1 receptor; 1.4 nM [3H]-labeled radioligand, 60 min at 25° C., pH 7.4; Ki from Cheng Prusoff equation
Protocol: Binding Assay for Human Melanin-Concentrating Hormone (MCH1) Receptor
Evaluation of the affinity of compounds for the human MCH-1 receptor was accomplished using 4-(3,4,5-tritritiumbenzyloxy)-1-(1-(2-(pyrrolidin-1-yl)ethyl)-1H-indazol-5-yl)pyridin-2(1H)-one and membranes prepared from stable CHO-K1 cells expressing the human MCH1 receptor obtained from Euroscreen (Batch 1138). Cell membrane homogenates (8.92 μg protein) were incubated for 60 min at 25° C. with 1.4 nM of the [^3H]-labeled compound in the absence or presence of the test compound in 50 mM Tris-HCl buffer, pH 7.4. Nonspecific binding was determined in the presence of 50 μM 1-(5-(4-cyanophenyl)bicyclo[3.1.0]hexan-2-yl)-3-(4-fluoro-3-(trifluoromethyl)phenyl)-1-(3-(4-methylpiperazin-1-yl)propyl)urea. Following incubation, the samples were filtered rapidly under vacuum through Skatron 11731 filters, pre-soaked in 0.5% polyethylenimine, and washed with ice-cold 50 mM Tris-HCl buffer, pH 7.4, (wash setting 9,9,0) using a Skatron cell harvester. The filters were counted for radioactivity in a liquid scintillation counter (Tri-Carb 2100TR, Packard) using a scintillation cocktail (Ultima Gold MV, Perkin Elmer).
The results are expressed as a percent inhibition of the control radioligand specific binding. The IC50 value (concentration causing a half-maximal inhibition of control specific binding) and Hill coefficient (nH) were determined by non-linear regression analysis of the competition curve using Hill equation curve fitting. The inhibition constant (Ki) was calculated from the Cheng Prusoff equation: (Ki=IC50/(1+(L/KD)), where L=concentration of radioligand in the assay, and KD=affinity of the radioligand for the receptor.

human MCH-1 receptor, sequence (Q99705 whole entry): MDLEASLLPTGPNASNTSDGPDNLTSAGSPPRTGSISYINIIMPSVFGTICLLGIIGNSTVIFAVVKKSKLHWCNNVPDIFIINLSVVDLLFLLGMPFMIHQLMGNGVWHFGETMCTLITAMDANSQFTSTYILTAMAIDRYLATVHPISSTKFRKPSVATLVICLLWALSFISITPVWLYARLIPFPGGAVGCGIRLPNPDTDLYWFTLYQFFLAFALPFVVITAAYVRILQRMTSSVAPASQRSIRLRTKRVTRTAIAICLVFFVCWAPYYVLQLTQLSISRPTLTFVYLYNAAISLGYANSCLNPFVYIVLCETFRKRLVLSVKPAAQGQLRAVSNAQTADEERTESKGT

In the case of `Cl.Cn1c2c(c3ccc(-n4ccc(OCc5ccc(C(F)(F)F)nc5)cc4=O)cc31)CN1CCCC1C2` (stereo not shown) [Example 32, 1-(10-Methyl-2,3,5,10,11,11a-hexahydro-1H-indolizino[7,6-b]indol-8-yl)-4-((6-(trifluoromethyl)pyridin-3-yl)methoxy)pyridin-2(1H)-one Hydrochloride], the melting point is reported as 255 to 259 °C and the Ki [1] is reported as 0.024 µM.
`Cl.Cn1c2c(c3ccc(-n4ccc(OCc5ccc(C(F)(F)F)nc5)cc4=O)cc31)CN1CCCCC1C2` (stereo not shown) [Example 34, 1-(5-Methyl-5,6,6a,7,8,9,10,12-octahydroindolo[2,3-b]quinolizin-3-yl)-4-((6-(trifluoromethyl)pyridin-3-yl)methoxy)pyridin-2(1H)-one Hydrochloride] gave a melting point of 260 to 262 °C and a Ki [1] of 0.024 µM.
`Cl.Cn1c2c(c3ccc(-n4ccc(-c5ccc(C(F)(F)F)nc5)cc4=O)cc31)CN1CCCCC1C2` (stereo not shown) [Example 36, 1-(5-Methyl-5,6,6a,7,8,9,10,12-octahydroindolo[2,3-b]quinolizin-3-yl)-4-(6-(trifluoromethyl)pyridin-3-yl)pyridin-2(1H)-one Hydrochloride] gave a melting point of 245 to 248 °C and a Ki [1] of 0.007 µM.
For `Cl.O=c1cc(-c2ccc(C(F)(F)F)cc2)ccn1-c1ccc2c3c([nH]c2c1)CC1CCCN1C3` (stereo not shown) [Example 39, 1-(2,3,5,10,11,11a-Hexahydro-1H-indolizino[7,6-b]indol-8-yl)-4-(4-(trifluoromethyl)phenyl)pyridin-2(1H)-one Hydrochloride], the melting point was 275 to 285 °C and the Ki [1] was 0.0085 µM.
Work on `Cl.O=c1cc(-c2ccc(C(F)(F)F)nc2)ccn1-c1ccc2c3c([nH]c2c1)CC1CCCN1C3` (stereo not shown) [Example 41, 1-(2,3,5,10,11,11a-Hexahydro-1H-indolizino[7,6-b]indol-8-yl)-4-(6-(trifluoromethyl)pyridin-3-yl)pyridin-2(1H)-one Hydrochloride] yielded a melting point of 275 to 285 °C and a Ki [1] of 0.014 µM.
With `Cl.Cn1c2c(c3ccc(-n4ccc(OCc5ccccc5)cc4=O)nc31)C1CCCN1CC2` (stereo not shown) [Example 44, 4-(Benzyloxy)-1-(7-methyl-2,3,5,6,7,11c-hexahydro-1H-pyrido[3′,2′:4,5]pyrrolo[2,3-g]indolizin-9-yl)pyridin-2(1H)-one Hydrochloride] the melting point was 130 to 140 °C and the Ki [1] was 0.012 µM.
For `Cl.Cn1c2c(c3ccc(-n4ccc(OCc5ccc(F)cc5F)cc4=O)nc31)C1CCCN1CC2` (stereo not shown) [Example 46, 4-(2,4-Difluorobenzyloxy)-1-(7-methyl-2,3,5,6,7,11c-hexahydro-1H-pyrido[3′,2′:4,5]pyrrolo[2,3-g]indolizin-9-yl)pyridin-2(1H)-one Hydrochloride], the melting point was 134 to 145 °C and the Ki [1] was 0.016 µM.
`Cl.Cn1c2c(c3ccc(-n4ccc(OCc5ccc(Cl)cc5F)cc4=O)nc31)C1CCCN1CC2` (stereo not shown) [Example 47, 4-(4-Chloro-2-fluorobenzyloxy)-1-(7-methyl-2,3,5,6,7,11c-hexahydro-1H-pyrido[3′,2′:4,5]pyrrolo[2,3-g]indolizin-9-yl)pyridin-2(1H)-one Hydrochloride] showed a melting point of 150 to 160 °C and a Ki [1] of 0.01 µM.
Work on `Cl.Cn1c2c(c3ccc(-n4ccc(-c5ccc(C(F)(F)F)nc5)cc4=O)nc31)C1CCCN1CC2` (stereo not shown) [Example 48, 1-(7-Methyl-2,3,5,6,7,11c-hexahydro-1H-pyrido[3′,2′:4,5]pyrrolo[2,3-g]indolizin-9-yl)-4-(6-(trifluoromethyl)pyridin-3-yl)pyridin-2(1H)-one Hydrochloride] yielded a melting point of 290 to 300 °C and a Ki [1] of 0.047 µM.
Molecule `Cl.Cn1c2c(c3ccc(-n4ccc(-c5ccc(C(F)(F)F)cc5)cc4=O)nc31)C1CCCN1CC2` (stereo not shown) [Example 49, 1-(7-Methyl-2,3,5,6,7,11c-hexahydro-1H-pyrido[3′,2′:4,5]pyrrolo[2,3-g]indolizin-9-yl)-4-(4-(trifluoromethyl)phenyl)pyridin-2(1H)-one Hydrochloride] has a melting point of 190 to 200 °C and a Ki [1] of 0.015 µM.
Work on `Cl.Cn1c2c(c3ccc(-n4ccc(OCc5ccccc5)cc4=O)nc31)CN1CCCC1C2` (stereo not shown) [Example 50, 4-(Benzyloxy)-1-(11-methyl-5,7,8,9,9a,10-hexahydro-11H-pyrido[3′,2′:4,5]pyrrolo[3,2-f]indolizin-2-yl)pyridin-2(1H)-one Hydrochloride] yielded a melting point of 240 to 250 °C and a Ki [1] of 0.016 µM.
Work on `Cl.Cn1c2c(c3ccc(-n4ccc(OCc5ccc(F)cn5)cc4=O)nc31)CN1CCCC1C2` (stereo not shown) [Example 51, 4-((5-Fluoropyridin-2-yl)methoxy)-1-(11-methyl-5,7,8,9,9a,10-hexahydro-11H-pyrido[3′,2′:4,5]pyrrolo[3,2-f]indolizin-2-yl)pyridin-2(1H)-one Hydrochloride] yielded a melting point of 220 to 230 °C and a Ki [1] of 0.037 µM.
In the case of `Cl.Cn1c2c(c3ccc(-n4ccc(-c5ccc(C(F)(F)F)cc5)cc4=O)nc31)CN1CCCC1C2` (stereo not shown) [Example 52, 1-(11-Methyl-5,7,8,9,9a,10-hexahydro-11H-pyrido[3′,2′:4,5]pyrrolo[3,2-f]indolizin-2-yl)-4-(4-(trifluoromethyl)phenyl)pyridin-2(1H)-one Hydrochloride], the melting point is reported as 300 to 305 °C and the Ki [1] is reported as 0.017 µM.
Work on `Cl.Cn1c2c(c3ccc(-n4ccc(-c5ccc(C(F)(F)F)nc5)cc4=O)nc31)CN1CCCC1C2` (stereo not shown) [Example 53, 1-(11-Methyl-5,7,8,9,9a,10-hexahydro-11H-pyrido[3′,2′:4,5]pyrrolo[3,2-f]indolizin-2-yl)-4-(6-(trifluoromethyl)pyridin-3-yl)pyridin-2(1H)-one Hydrochloride] yielded a melting point of 280 to 290 °C and a Ki [1] of 0.033 µM.
In the case of `Cl.Cn1c2c(c3ccc(-n4ccc(OCc5ccc(Cl)cc5F)cc4=O)nc31)CN1CCCC1C2` (stereo not shown) [Example 54, 4-(4-Chloro-2-fluorobenzyloxy)-1-(11-methyl-5,7,8,9,9a,10-hexahydro-11H-pyrido[3′,2′:4,5]pyrrolo[3,2-f]indolizin-2-yl)pyridin-2(1H)-one Hydrochloride], the melting point is reported as 210 to 220 °C and the Ki [1] is reported as 0.026 µM.
In the case of `Cl.Cn1c2c(c3ccc(-n4ccc(OCc5ccc(F)cc5F)cc4=O)nc31)CN1CCCC1C2` (stereo not shown) [Example 55, 4-(2,4-Difluorobenzyloxy)-1-(11-methyl-5,7,8,9,9a,10-hexahydro-11H-pyrido[3′,2′:4,5]pyrrolo[3,2-f]indolizin-2-yl)pyridin-2(1H)-one Hydrochloride], the melting point is reported as 140 to 150 °C and the Ki [1] is reported as 0.031 µM.
Molecule `Cl.Cn1c2c(c3ccc(-n4ccc(OCc5ncc(F)cc5F)cc4=O)nc31)CN1CCCC1C2` (stereo not shown) [Example 56, 4-((3,5-Difluoropyridin-2-yl)methoxy)-1-(11-methyl-5,7,8,9,9a,10-hexahydro-11H-pyrido[3′,2′:4,5]pyrrolo[3,2-f]indolizin-2-yl)pyridin-2(1H)-one Hydrochloride] has a melting point of 220 to 230 °C and a Ki [1] of 0.121 µM.

Source: patent publication US8618299B2, “Azinone-substituted azapolycycle MCH-1 antagonists, methods of making, and use thereof” (Albany Molecular Research, Inc., priority 2009, dated 2013)
